Results reported in patent publication US20230133958A1, “COMPOUNDS USEFUL IN MODULATING EGFR AND PI3K” (Mekanistic Therapeutics LLC, priority 2021, published 2023).

Experiments:
[1] = biological target: PI3Kβ (Homo sapiens, UniProt P42338); assay: Z'-LYTE / Adapta biochemical kinase assay, PI3Kβ
Excerpt: The Z′-LYTE® biochemical assay employs a fluorescence-based, coupled-enzyme format and is based on the differential sensitivity of phosphorylated and non-phosphorylated peptides to proteolytic cleavage. The peptide substrate is labeled with two fluorophores—one at each end—that make up a FRET pair. In the primary reaction, the kinase transfers the gamma-phosphate of ATP to a single tyrosine, serine or threonine residue in a synthetic FRET-peptide. In the secondary reaction, a site-specific protease recognizes and cleaves non-phosphorylated FRET-peptides. Phosphorylation of FRET-peptides suppresses cleavage by the Development Reagent. […] A ratiometric method, which calculates the ratio (the Emission Ratio) of donor emission to acceptor emission after excitation of the donor fluorophore at 400 nm, is used to quantitate reaction progress.
A significant benefit of this ratiometric method for quantitating reaction progress is the elimination of well-to-well variations in FRET-peptide concentration and signal intensities. […]
Both cleaved and uncleaved FRET-peptides contribute to the fluorescence signals and therefore to the Emission Ratio. The extent of phosphorylation of the FRET-peptide can be calculated from the Emission Ratio. […]

[2] = system: T-47D; assay: NCI COMPARE panel (SRB growth inhibition), T-47D; assay type: cell-based; conditions: Homo sapiens, T47D, Breast Cancer, 48 h
Description: (§1) The human tumor cell lines of the cancer screening panel are grown in RPMI 1640 medium containing 5% fetal bovine serum and 2 mM L-glutamine. For a typical screening experiment, cells are inoculated into 96 well microtiter plates in 100 µL at plating densities ranging from 5,000 to 40,000 cells/well depending on the doubling time of individual cell lines. After cell inoculation, the microtiter plates are incubated at 37° C., 5% CO2, 95% air and 100% relative humidity for 24 h prior to addition of experimental drugs.
(§2) After 24 h, two plates of each cell line are fixed in situ with TCA, to represent a measurement of the cell population for each cell line at the time of drug addition (Tz). Experimental drugs are solubilized in dimethyl sulfoxide at 400-fold the desired final maximum test concentration and stored frozen prior to use. […]
(§3) Following drug addition, the plates are incubated for an additional 48 h at 37° C., 5 % CO2, 95% air, and 100% relative humidity. […] Bound stain is subsequently solubilized with 10 mM trizma base, and the absorbance is read on an automated plate reader at a wavelength of 515 nm. […] Using the seven absorbance measurements [time zero, (Tz), control growth, (C), and test growth in the presence of drug at the five concentration levels (Ti)], the percentage growth is calculated at each of the drug concentrations levels. Percentage growth inhibition is calculated as: […]

[3] = system: HL-60(TB); assay: NCI COMPARE panel (SRB growth inhibition), HL-60(TB); assay type: cell-based; conditions: Homo sapiens, Leukemia, 48 h
Description: as §1, §2, §3

[4] = system: UACC-62; assay: NCI COMPARE panel (SRB growth inhibition), UACC-62; assay type: cell-based; conditions: Homo sapiens; Melanoma, UACC-62, 48 h
Description: as §1, §2, §3

Sequence of PI3Kβ (P42338 whole entry): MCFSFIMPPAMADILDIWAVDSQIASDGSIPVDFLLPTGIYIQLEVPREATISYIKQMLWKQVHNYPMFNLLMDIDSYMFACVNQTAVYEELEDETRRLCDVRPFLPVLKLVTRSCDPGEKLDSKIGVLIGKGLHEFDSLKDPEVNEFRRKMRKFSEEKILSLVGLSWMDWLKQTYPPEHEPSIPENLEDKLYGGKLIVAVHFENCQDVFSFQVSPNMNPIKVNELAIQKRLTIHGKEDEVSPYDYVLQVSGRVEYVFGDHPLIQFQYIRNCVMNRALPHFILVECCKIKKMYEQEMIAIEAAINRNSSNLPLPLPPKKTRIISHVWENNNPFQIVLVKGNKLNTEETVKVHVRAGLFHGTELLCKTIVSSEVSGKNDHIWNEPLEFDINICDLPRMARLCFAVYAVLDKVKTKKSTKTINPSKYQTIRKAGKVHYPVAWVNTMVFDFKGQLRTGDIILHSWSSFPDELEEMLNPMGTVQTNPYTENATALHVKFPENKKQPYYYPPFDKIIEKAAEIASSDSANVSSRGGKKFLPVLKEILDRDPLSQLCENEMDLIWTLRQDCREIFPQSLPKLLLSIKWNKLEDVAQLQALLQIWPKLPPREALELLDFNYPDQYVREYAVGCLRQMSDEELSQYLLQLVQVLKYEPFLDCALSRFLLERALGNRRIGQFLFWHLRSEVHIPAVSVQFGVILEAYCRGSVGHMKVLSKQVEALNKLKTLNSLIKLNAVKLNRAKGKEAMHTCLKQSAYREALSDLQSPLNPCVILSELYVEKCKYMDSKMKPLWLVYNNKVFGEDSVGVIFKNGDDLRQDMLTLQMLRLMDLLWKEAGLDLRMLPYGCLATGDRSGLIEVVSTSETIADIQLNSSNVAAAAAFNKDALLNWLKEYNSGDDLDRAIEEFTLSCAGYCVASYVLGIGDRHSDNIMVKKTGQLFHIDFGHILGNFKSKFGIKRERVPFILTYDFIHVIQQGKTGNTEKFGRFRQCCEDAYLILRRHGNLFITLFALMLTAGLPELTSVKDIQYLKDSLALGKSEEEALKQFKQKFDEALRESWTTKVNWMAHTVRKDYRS
Sequence of PI3Kβ (P27986 whole entry partner): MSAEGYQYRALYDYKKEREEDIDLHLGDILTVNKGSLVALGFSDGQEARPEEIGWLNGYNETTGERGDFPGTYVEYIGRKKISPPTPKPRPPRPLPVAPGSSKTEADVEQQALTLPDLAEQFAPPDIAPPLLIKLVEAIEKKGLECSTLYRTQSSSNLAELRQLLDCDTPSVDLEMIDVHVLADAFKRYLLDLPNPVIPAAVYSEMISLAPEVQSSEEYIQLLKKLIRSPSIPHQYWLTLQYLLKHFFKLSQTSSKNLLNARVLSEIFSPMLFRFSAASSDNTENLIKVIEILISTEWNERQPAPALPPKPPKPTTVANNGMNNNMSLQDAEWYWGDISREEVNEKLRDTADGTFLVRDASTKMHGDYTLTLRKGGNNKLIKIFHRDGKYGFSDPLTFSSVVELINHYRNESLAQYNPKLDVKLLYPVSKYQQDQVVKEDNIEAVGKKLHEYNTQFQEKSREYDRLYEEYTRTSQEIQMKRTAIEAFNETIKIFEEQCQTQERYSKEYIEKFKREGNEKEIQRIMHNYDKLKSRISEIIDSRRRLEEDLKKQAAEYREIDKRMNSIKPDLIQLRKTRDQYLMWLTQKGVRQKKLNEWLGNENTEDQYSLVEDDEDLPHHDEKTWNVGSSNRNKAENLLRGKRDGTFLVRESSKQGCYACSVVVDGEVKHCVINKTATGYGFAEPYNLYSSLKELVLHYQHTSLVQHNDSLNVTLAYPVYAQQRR

Structure (SMILES) | IC50 [1] | GI50 [2] | GI50 [3] | GI50 [4]
CS(=O)(=O)Nc1cc(-c2ccc3ncnc(Nc4cccc(Cl)c4F)c3c2)cnc1Cl [Compound 6, N-[2-chloro-5-[4-(3-chloro-2-fluoro-anilino)quinazolin-6-yl]-3-pyridyl] methanesulfonamide] | 20 to 200 nM | ≤ 75 nM | 75 to 125 nM | ≤ 75 nM
CS(=O)(=O)Nc1cc(-c2ccc3ncc(C#N)c(Nc4cccc(Cl)c4F)c3c2)cnc1Cl [Compound 10, N-[2-chloro-5-[4-(3-chloro-2-fluoro-anilino)-3-cyano-6-quinolyl]-3-pyridyl]methanesulfonamide] | – | 125 to 250 nM | ≤ 75 nM | 75 to 125 nM
